Experimental data published in patent publication US11014911B2, “CDK2 inhibitors” (Pfizer Inc., priority 2019, dated 2021).

How the values were obtained:
[1] = molecular target: CDK2/Cyclin E1 full length (Homo sapiens (Human), UniProt P24941); experiment: CDK2/Cyclin E1 full length mobility shift assay; type: biochemical
[2] = molecular target: GSK3β (H350L) (Homo sapiens (Human), UniProt P49841); details: read-out: GSK3β Ki
Chain of GSK3β (H350L) (P49841 whole entry, stated change not applied): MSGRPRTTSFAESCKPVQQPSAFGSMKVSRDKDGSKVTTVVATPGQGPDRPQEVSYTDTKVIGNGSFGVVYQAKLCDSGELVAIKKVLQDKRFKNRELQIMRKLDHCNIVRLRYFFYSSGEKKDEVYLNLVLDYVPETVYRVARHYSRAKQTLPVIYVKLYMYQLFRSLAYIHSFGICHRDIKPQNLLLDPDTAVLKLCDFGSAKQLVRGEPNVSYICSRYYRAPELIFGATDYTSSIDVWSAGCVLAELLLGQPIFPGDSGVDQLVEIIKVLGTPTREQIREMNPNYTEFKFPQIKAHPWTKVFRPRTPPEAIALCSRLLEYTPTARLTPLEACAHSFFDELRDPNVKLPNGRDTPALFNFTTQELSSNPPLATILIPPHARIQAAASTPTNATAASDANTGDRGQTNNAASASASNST
Procedure: The assay was initiated with the addition of ATP, following 15 minutes pre-incubation of enzyme and inhibitor at room temperature in the reaction mixture. The reaction was stopped after 30 minutes at room temperature by the addition of 50 μL of 80 mM EDTA.

Structure (SMILES) | Ki [1] [nM] | Ki [2] [nM]
CC[C@H](C)NC(=O)O[C@@H]1CC[C@H](c2cc(NC(=O)Cc3cnc(C)s3)n[nH]2)C1 [Example 33] | 0.17 | 26.4
COc1cc(CC(=O)Nc2cc([C@H]3CC[C@@H](OC(=O)N4[C@@H](C)C[C@@H]4C)C3)[nH]n2)ccn1 [Example 149] | 0.06 | 5.58
COc1cc(CC(=O)Nc2cc([C@H]3CC[C@@H](OC(=O)N4C[C@@H](OC)[C@@H]4C)C3)[nH]n2)ccn1 [Example 619, (1R,3S)-3-(3-{[(2-methoxypyridin-4-yl)acetyl]amino}-1H-pyrazol-5-yl)cyclopentyl (2S,3R)-3-methoxy-2-methylazetidine-1-carboxylate] | 0.42 | 5.75
COc1cc(CC(=O)Nc2cc([C@@H]3CC[C@H](OC(=O)N[C@H]4CC[C@](C)(O)CC4)C3)[nH]n2)ccn1 [Example 569, (1S,3R)-3-(3-{[(2-methoxypyridin-4-yl)acetyl]amino}-1H-pyrazol-5-yl)cyclopentyl (trans-4-hydroxy-4-methylcyclohexyl)carbamate] | 1.25 | 4.31
CC[C@@H](C)NC(=O)O[C@H]1CC[C@@H](c2cc(NC(=O)Cc3ccno3)n[nH]2)C1 [Example 29] | 0.16 | 19.7
Cc1ccc(CC(=O)Nc2cc([C@@H]3CC[C@H](OC(=O)N[C@H]4CC[C@H](O)CC4)C3)[nH]n2)nc1 [Example 549, (1S,3R)-3-(3-{[(5-methylpyridin-2-yl)acetyl]amino}-1H-pyrazol-5-yl)cyclopentyl (trans-4-hydroxycyclohexyl)carbamate] | 0.9 | 3.24
CCN(C)C(=O)O[C@@H]1CC[C@H](c2cc(NC(=O)Cc3cc(F)cc(F)c3)n[nH]2)C1 [Example 245, (1R,3S)-3-(3-{[(3,5-difluorophenyl)acetyl]amino}-1H-pyrazol-5-yl)cyclopentyl ethyl(methyl)carbamate] | 0.53 | 19.2
CCCNC(=O)O[C@@H]1CC[C@H](c2cc(NC(=O)Cc3cnc(C)s3)n[nH]2)C1 [Example 185, (1R,3S)-3-(3-{[(2-methyl-1,3-thiazol-5-yl)acetyl]amino}-1H-pyrazol-5-yl)cyclopentyl propylcarbamate] | 0.71 | 13
CCCNC(=O)O[C@@H]1CC[C@H](c2cc(NC(=O)Cc3cc(C)ccc3S(C)(=O)=O)n[nH]2)C1 [Example 206, (1R,3S)-3-[3-({[5-methyl-2-(methylsulfonyl)phenyl]acetyl}amino)-1H-pyrazol-5-yl]cyclopentyl propylcarbamate] | 1.22 | > 95.3
Cc1cc(CC(=O)Nc2cc([C@H]3CC[C@@H](OC(=O)N4CCCC[C@H]4C)C3)[nH]n2)on1 [Example 641, (1R,3S)-3-(3-{[(3-methyl-1,2-oxazol-5-yl)acetyl]amino}-1H-pyrazol-5-yl)cyclopentyl (2R)-2-methylpiperidine-1-carboxylate] | 0.59 | 14.4
Cc1cc(CC(=O)Nc2cc([C@H]3CC[C@@H](OC(=O)N4CCC[C@@H]4C)C3)[nH]n2)no1 [Example 634, (1R,3S)-3-(3-{[(5-methyl-1,2-oxazol-3-yl)acetyl]amino}-1H-pyrazol-5-yl)cyclopentyl (2S)-2-methylpyrrolidine-1-carboxylate] | 0.99 | 14.4
CC(C)(C)NC(=O)O[C@@H]1CC[C@H](c2cc(NC(=O)Cc3ccon3)n[nH]2)C1 [Example 17, (1R,3S)-3-{3-[(1,2-oxazol-3-ylacetyl)amino]-1H-pyrazol-5-yl}cyclopentyl tert-butylcarbamate] | 0.33 | 65.8
CC[C@H](C)NC(=O)O[C@@H]1CC[C@H](c2cc(NC(=O)Cc3cc(C)nn3C)n[nH]2)C1 [Example 338, (1R,3S)-3-(3-{[(1,3-dimethyl-1H-pyrazol-5-yl)acetyl]amino}-1H-pyrazol-5-yl)cyclopentyl (2S)-butan-2-ylcarbamate] | 1.58 | 94.4
CCCNC(=O)O[C@@H]1CC[C@H](c2cc(NC(=O)c3ccc(C)nc3C)n[nH]2)C1 [Example 181, (1R,3S)-3-(3-{[(2,6-dimethylpyridin-3-yl)carbonyl]amino}-1H-pyrazol-5-yl)cyclopentyl propylcarbamate] | 3.91 | > 191
CC[C@H](C)NC(=O)O[C@@H]1CC[C@H](c2cc(NC(=O)Cc3cc(OC)ccc3S(C)(=O)=O)n[nH]2)C1 [Example 50] | 0.17 | 117
CC(C)NC(=O)O[C@H]1CC[C@@H](c2cc(NC(=O)c3cnnn3C)n[nH]2)C1 [Example 261, (1S,3R)-3-(3-{[(1-methyl-1H-1,2,3-triazol-5-yl)carbonyl]amino}-1H-pyrazol-5-yl)cyclopentyl propan-2-ylcarbamate] | 1 | 121
COc1cc(CC(=O)Nc2cc([C@@H]3CC[C@H](OC(=O)N4C[C@@](C)(O)[C@@H]4C)C3)[nH]n2)ccn1 [Example 624, (1S,3R)-3-(3-{[(2-methoxypyridin-4-yl)acetyl]amino}-1H-pyrazol-5-yl)cyclopentyl (2S,3R)-3-hydroxy-2,3-dimethylazetidine-1-carboxylate] | 4.18 | 16.3
CCCNC(=O)O[C@H]1CC[C@@H](c2cc(NC(=O)c3ccnc(OC)c3)n[nH]2)C1 [Example 184, (1S,3R)-3-(3-{[(2-methoxypyridin-4-yl)carbonyl]amino}-1H-pyrazol-5-yl)cyclopentyl propylcarbamate] | 1.35 | > 95.3

Structure (SMILES) | Ki [1] [nM] | Ki [2] [nM]
CCCNC(=O)O[C@@H]1CC[C@H](c2cc(NC(=O)Cc3cc(OC)ncc3S(C)(=O)=O)n[nH]2)C1 [Example 214, (1R,3S)-3-[3-({[2-methoxy-5-(methylsulfonyl)pyridin-4-yl]acetyl}amino)-1H-pyrazol-5-yl]cyclopentyl propylcarbamate] | 0.37 | 131
CCNC(=O)O[C@@H]1CC[C@H](c2cc(NC(=O)Cc3ccc(C)nc3)n[nH]2)C1 [Example 227, (1R,3S)-3-(3-{[(6-methylpyridin-3-yl)acetyl]amino}-1H-pyrazol-5-yl)cyclopentyl ethylcarbamate] | 1.21 | 18.9
CC1(NC(=O)O[C@@H]2CC[C@H](c3cc(NC(=O)Cc4ccc(Cl)cn4)n[nH]3)C2)CC1 [Example 437, (1R,3S)-3-(3-{[(5-chloropyridin-2-yl)acetyl]amino}-1H-pyrazol-5-yl)cyclopentyl (1-methylcyclopropyl)carbamate] | 0.51 | 15.9
CC[C@H](C)NC(=O)O[C@@H]1CC[C@H](c2cc(NC(=O)Cc3cccc(C)c3S(C)(=O)=O)n[nH]2)C1 [Example 372, (1R,3S)-3-[3-({[3-methyl-2-(methylsulfonyl)phenyl]acetyl}amino)-1H-pyrazol-5-yl]cyclopentyl (2S)-butan-2-ylcarbamate] | 0.85 | 115
CC[C@H](C)NC(=O)O[C@@H]1CC[C@H](c2cc(NC(=O)c3cnnn3C)n[nH]2)C1 [Example 4, (1R,3S)-3-(3-{[(1-methyl-1H-1,2,3-triazol-5-yl)carbonyl]amino}-1H-pyrazol-5-yl)cyclopentyl (2S)-butan-2-ylcarbamate] | 0.1 | 110
COCc1cc(C(=O)Nc2cc([C@H]3CC[C@@H](OC(=O)NCCC(F)(F)F)C3)[nH]n2)n(C)n1 [Example 103] | 1.37 | > 47.6
Cc1cc(CC(=O)Nc2cc([C@H]3CC[C@@H](OC(=O)N4CCCCC4(C)C)C3)[nH]n2)on1 [Example 133] | 0.11 | 7
CC[C@H](C)NC(=O)O[C@@H]1CC[C@H](c2cc(NC(=O)Cc3cccc4c3CN(C)C4=O)n[nH]2)C1 [Example 361, (1R,3S)-3-(3-{[(2-methyl-1-oxo-2,3-dihydro-1H-isoindol-4-yl)acetyl]amino}-1H-pyrazol-5-yl)cyclopentyl (2S)-butan-2-ylcarbamate] | 0.94 | 25.6
CCCNC(=O)O[C@H]1CC[C@@H](c2cc(NC(=O)Cc3cnc(C)s3)n[nH]2)C1 [Example 22] | 0.23 | > 191
CC(C)(C)NC(=O)O[C@@H]1CC[C@H](c2cc(NC(=O)Cc3cnc(C(F)(F)F)cn3)n[nH]2)C1 [Example 317, (1R,3S)-3-[3-({[5-(trifluoromethyl)pyrazin-2-yl]acetyl}amino)-1H-pyrazol-5-yl]cyclopentyl tert-butylcarbamate] | 0.26 | 46
Cc1cc(CC(=O)Nc2cc([C@@H]3CC[C@H](OC(=O)N[C@H]4CC[C@H](O)CC4)C3)[nH]n2)ccn1 [Example 547, (1S,3R)-3-(3-{[(2-methylpyridin-4-yl)acetyl]amino}-1H-pyrazol-5-yl)cyclopentyl (trans-4-hydroxycyclohexyl)carbamate] | 0.61 | 3.62
C[C@H]1CCCN1C(=O)O[C@@H]1CC[C@H](c2cc(NC(=O)Cc3ccon3)n[nH]2)C1 [Example 628, (1R,3S)-3-{3-[(1,2-oxazol-3-ylacetyl)amino]-1H-pyrazol-5-yl}cyclopentyl (2S)-2-methylpyrrolidine-1-carboxylate] | 0.92 | 20.8
Cn1cc(CC(=O)Nc2cc([C@H]3CC[C@@H](OC(=O)N4CCC4(C)C)C3)[nH]n2)cn1 [Example 148] | 0.24 | 5.57
C[C@]1(O)CC[C@@H](NC(=O)O[C@H]2CC[C@@H](c3cc(NC(=O)Cc4ccc(F)cc4)n[nH]3)C2)CC1 [Example 560, (1S,3R)-3-(3-{[(4-fluorophenyl)acetyl]amino}-1H-pyrazol-5-yl)cyclopentyl (cis-4-hydroxy-4-methylcyclohexyl)carbamate] | 0.6 | 9.84
CC(C)NC(=O)O[C@@H]1CC[C@H](c2cc(NC(=O)Cc3cc(F)cc(F)c3)n[nH]2)C1 [Example 279, (1R,3S)-3-(3-{[(3,5-difluorophenyl)acetyl]amino}-1H-pyrazol-5-yl)cyclopentyl propan-2-ylcarbamate] | 0.32 | 53.2
Cn1cc(CC(=O)Nc2cc([C@H]3CC[C@@H](OC(=O)NC(C)(C)C)C3)[nH]n2)cn1 [Example 112] | 0.15 | 40.2
CC1(C)CCCN1C(=O)O[C@@H]1CC[C@H](c2cc(NC(=O)Cc3cnc4ncnn4c3)n[nH]2)C1 [Example 137] | 0.09 | 6.07
